The numbers were not newly measured in patent publication US8753875B2, “Compositions and means for diagnosing microbial infections” (priority 2007, dated 2014), which cites them from elsewhere.

The test system of the data set is E. coli. The settings on record: cited from earlier work.

Read-outs that look alike come from different tables or passages of the source.

For the compound `Cc1cc(NS(=O)(=O)c2ccc(N)cc2)no1` [SUL, 4-amino-N-(5-methylisoxazol-3-yl)-benzenesulfonamide], the “Antimicrobial resistance of E. coli (resistance in percent)” value reads like this: (Austria, n 126) 25.4%; (Belgium, n 137) 32.8%; (Canada, n 166) 25.3%; (Denmark, n 85) 21.2%; (Finland, n 182) 15.4%; (France, n 199) 31.7%. Also, the “Antimicrobial resistance of E. coli (resistance in percent)” value (Germany, n 138) is on record as 34.8%; the “Antimicrobial resistance of E. coli (resistance in percent)” value (Greece, n 132) is 19.7%; the “Antimicrobial resistance of E. coli (resistance in percent)” value (Ireland, n 154) is reported as 40.3%; the “Antimicrobial resistance of E. coli (resistance in percent)” value (Luxembourg, n 24) is on record as 25.0%; the “Antimicrobial resistance of E. coli (resistance in percent)” value (Norway, n 168) is reported as 25.0%; the “Antimicrobial resistance of E. coli (resistance in percent)” value (Portugal, n 86) is reported as 44.2%. Besides, the “Antimicrobial resistance of E. coli (resistance in percent)” value is on record as 48.7% (Spain, n 191); 16.6% (Sweden, n 193); 31.1% (Switzerland, n 122); 25.6% (The Netherlands, n 195); 29.1% (Total, n 2478); 31.7% (United Kingdom, n 180).
For co-amoxiclav [AMC], the “Antimicrobial resistance of E. coli (resistance in percent)” value is reported as 2.4% (Austria, n 126); 2.9% (Belgium, n 137); 3.6% (Canada, n 166); 1.2% (Denmark, n 85); 4.9% (Finland, n 182); 1.5% (France, n 199). The “Antimicrobial resistance of E. coli (resistance in percent)” value is listed as 2.2% (Germany, n 138); 0.8% (Greece, n 132); 5.8% (Ireland, n 154); 0% (Luxembourg, n 24); 3.6% (Norway, n 168); 9.3% (Portugal, n 86). In addition, the “Antimicrobial resistance of E. coli (resistance in percent)” value (Spain, n 191) is listed as 4.2%; the “Antimicrobial resistance of E. coli (resistance in percent)” value (Sweden, n 193) is reported as 5.7%; the “Antimicrobial resistance of E. coli (resistance in percent)” value (Switzerland, n 122) is reported as 2.5%; the “Antimicrobial resistance of E. coli (resistance in percent)” value (The Netherlands, n 195) is 2.6%; the “Antimicrobial resistance of E. coli (resistance in percent)” value (Total, n 2478) was 3.4%; the “Antimicrobial resistance of E. coli (resistance in percent)” value (United Kingdom, n 180) was 2.8%.
`CNC(C)C1CCC(N)C(OC2C(N)CC(N)C(OC3OCC(C)(O)C(NC)C3O)C2O)O1` (stereo not drawn) [GEN, 2-[4,6-diamino-3-[3-amino-6-(1-methylaminoethyl)tetrahydropyran-2-yl]oxy-2-hydroxy-cyclohexoxy]-5-methyl-4-methylamino-tetrahydropyran-3,5-diol]: the “Antimicrobial resistance of E. coli (resistance in percent)” value is, setting by setting: (Austria, n 126) 0.8%; (Belgium, n 137) 0.7%; (Canada, n 166) 0.6%; (Denmark, n 85) 0%; (Finland, n 182) 0.5%; (France, n 199) 0%. Further, the “Antimicrobial resistance of E. coli (resistance in percent)” value (Germany, n 138) is recorded as 0.7%; the “Antimicrobial resistance of E. coli (resistance in percent)” value (Greece, n 132) is 0.8%; the “Antimicrobial resistance of E. coli (resistance in percent)” value (Ireland, n 154) is on record as 0.6%; the “Antimicrobial resistance of E. coli (resistance in percent)” value (Luxembourg, n 24) was 0%; the “Antimicrobial resistance of E. coli (resistance in percent)” value (Norway, n 168) was 0%; the “Antimicrobial resistance of E. coli (resistance in percent)” value (Portugal, n 86) is reported as 3.5%. Further, the “Antimicrobial resistance of E. coli (resistance in percent)” value (Spain, n 191) is 4.7%; the “Antimicrobial resistance of E. coli (resistance in percent)” value (Sweden, n 193) is 0%; the “Antimicrobial resistance of E. coli (resistance in percent)” value (Switzerland, n 122) is recorded as 3.3%; the “Antimicrobial resistance of E. coli (resistance in percent)” value (The Netherlands, n 195) is on record as 0.5%; the “Antimicrobial resistance of E. coli (resistance in percent)” value (Total, n 2478) is reported as 1.0%; the “Antimicrobial resistance of E. coli (resistance in percent)” value (United Kingdom, n 180) is reported as 0%.
For the compound `CCn1cc(C(=O)O)c(=O)c2ccc(C)nc21` [NAL, 1-ethyl-7-methyl-4-oxo-[1,8]naphthyridine-3-carboxylic acid], the “Antimicrobial resistance of E. coli (resistance in percent)” value (Austria, n 126) is 2.4%; the “Antimicrobial resistance of E. coli (resistance in percent)” value (Belgium, n 137) is reported as 6.6%; the “Antimicrobial resistance of E. coli (resistance in percent)” value (Canada, n 166) is given as 0.6%; the “Antimicrobial resistance of E. coli (resistance in percent)” value (Denmark, n 85) is listed as 3.5%; the “Antimicrobial resistance of E. coli (resistance in percent)” value (Finland, n 182) is given as 1.6%; the “Antimicrobial resistance of E. coli (resistance in percent)” value (France, n 199) was 3.5%. For the same compound, the “Antimicrobial resistance of E. coli (resistance in percent)” value is listed as 3.6% (Germany, n 138); 6.8% (Greece, n 132); 1.9% (Ireland, n 154); 8.3% (Luxembourg, n 24); 1.2% (Norway, n 168); 11.6% (Portugal, n 86). Besides, the “Antimicrobial resistance of E. coli (resistance in percent)” value by setting is: (Spain, n 191) 26.7%; (Sweden, n 193) 2.6%; (Switzerland, n 122) 6.6%; (The Netherlands, n 195) 5.1%; (Total, n 2478) 5.4%; (United Kingdom, n 180) 2.2%.
Consider `C[C@@H]1O[C@@H]1P(=O)(O)O` [FOF, [(2R,3S)-3-methyloxiran-2-yl]phosphonic acid], for which the “Antimicrobial resistance of E. coli (resistance in percent)” value is, setting by setting: (Austria, n 126) 0%; (Belgium, n 137) 0.7%; (Canada, n 166) 0.6%; (Denmark, n 85) 1.2%; (Finland, n 182) 1.1%; (France, n 199) 1.0%. In addition, the “Antimicrobial resistance of E. coli (resistance in percent)” value is, setting by setting: (Germany, n 138) 0%; (Greece, n 132) 1.5%; (Ireland, n 154) 1.3%; (Luxembourg, n 24) 0%; (Norway, n 168) 1.2%; (Portugal, n 86) 0%. For the same compound, the “Antimicrobial resistance of E. coli (resistance in percent)” value (Spain, n 191) was 0.5%; the “Antimicrobial resistance of E. coli (resistance in percent)” value (Sweden, n 193) is on record as 0.5%; the “Antimicrobial resistance of E. coli (resistance in percent)” value (Switzerland, n 122) is 0.8%; the “Antimicrobial resistance of E. coli (resistance in percent)” value (The Netherlands, n 195) is given as 0.5%; the “Antimicrobial resistance of E. coli (resistance in percent)” value (Total, n 2478) is listed as 0.7%; the “Antimicrobial resistance of E. coli (resistance in percent)” value (United Kingdom, n 180) is 0%.
